Source: BindingDB's records for patent US20240043427 (Gilead Sciences, 2024)

Target: 5'-nucleotidase (Homo sapiens, UniProt P21589)
Experiment: CD73 Biochemical IC50 Assay
Procedure: Compound serial dilutions were pre-spotted into Thermo Nunc assay plate. 50 uL CD73 enzyme buffer (CD73 purchased from R&D system=0.6 nM, 25 mM Tris, pH 7.4, 5 mM MgCl2, 1 mM NaH2PO4) was added into the assay plate and incubate for 15 mins. […] The samples were analyzed using Rapid fire.

Sequence of 5'-nucleotidase (P21589 whole entry): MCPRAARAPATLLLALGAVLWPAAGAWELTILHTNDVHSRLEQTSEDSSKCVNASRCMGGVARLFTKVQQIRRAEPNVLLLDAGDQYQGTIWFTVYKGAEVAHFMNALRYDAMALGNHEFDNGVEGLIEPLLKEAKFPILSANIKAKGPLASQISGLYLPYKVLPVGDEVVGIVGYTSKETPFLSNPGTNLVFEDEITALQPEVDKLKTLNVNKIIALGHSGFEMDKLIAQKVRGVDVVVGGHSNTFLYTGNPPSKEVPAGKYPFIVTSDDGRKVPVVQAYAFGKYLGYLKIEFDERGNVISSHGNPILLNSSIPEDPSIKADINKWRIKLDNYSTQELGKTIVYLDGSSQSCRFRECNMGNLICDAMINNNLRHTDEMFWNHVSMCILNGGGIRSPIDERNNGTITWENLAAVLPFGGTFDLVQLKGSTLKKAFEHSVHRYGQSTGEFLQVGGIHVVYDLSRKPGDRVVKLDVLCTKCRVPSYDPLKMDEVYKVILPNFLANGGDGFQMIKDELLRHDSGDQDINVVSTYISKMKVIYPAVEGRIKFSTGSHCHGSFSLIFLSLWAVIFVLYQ

Row | IC50 [nM] | SMILES
1 | 0.32 | O=c1[nH]cc(-c2cc([C@H]3C[C@@H]3c3ccc4cnn(CC(F)(F)F)c4c3F)c3ncc(F)n3n2)c(=O)[nH]1 [US20240043427, Example 630]
2 | 67.9 | CC(C)(C)COc1cc(-c2c[nH]c(=O)[nH]c2=O)nn2ccnc12 [US20240043427, Example 679]

Row | SMILES | IC50 [nM]
3 | O=c1[nH]cc(-c2cc(N3CC4CC(F)(C4)C3)c3nccn3n2)c(=O)[nH]1 [US20240043427, Example 579] | 19.1
